Data on four molecules can be found in patent US6872727B1, “Polycyclic pyrimidine -2,4(1H,3H)-diones with functionalized alkyl residues at the 1- and/or 3-position(s); methods for their synthesis and pharmaceutical preparation” (Privates Institut fur Biomedizinische Forschung und Beratung, priority 1999, dated 2005).

pIC50: −log10 of the molar value.

The test deals with Clostridium histolyticum collagenase (EC 3.4.24.3). The test is described as follows: Inhibition of Clostridium histolyticum collagenase, spectrophotometric FALGPA assay. The test is classed as biochemical. The following applies: chromogenic substrate FALGPA; read-out: C. histolyticum (50% inhibition). From the text:
The activity of Clostidium histolyticum collagenase may be readily determined by a simple spectrophotometric assay using the synthetic chromogenic peptide substrate N-(3-[2-furyl]acryloyi)-leucine-glycine-proline-alanine (FALGPA; Van Hart, H. E. and Steinbrink, D. R. 1981, Anal. Biochem. 113, 356). The degree of inhibition of the degradation of this chromogenic substrate by the addition of the various test substances described in Table 1 may be easily quantified. The enzyme and substrate are commercially available.
In the case of `CC(S)CCn1c(=O)[nH]c(=O)c2ccccc21` (racemic) [Example 3, (R,S)-1-(3-mercaptobut-1-yl)-chinazolin-2,4(1H,3H)-dione], the pIC50 is 4.56.
Then `O=c1[nH]c(=O)n(CCCS)c2ccccc12` [Example 4, 1-(3-mercaptopropyl)-chinazolin-2,4(1H,3H)-dione], with 4.27; and `O=c1[nH]c(=O)n(CCS)c2ccccc12` [Example 5, 1-(2-mercaptoethyl)-chinazolin-2,4(1H,3H)-dione], with 4.41; and `Cn1c(=O)c2ccccc2n(CCCS)c1=O` [Example 7, 1-(3-mercaptoprop-1-yl)-3-methyl-chinazolin-2,4(1H,3H)-dione], with 4.94.
